In US11191774B2, “Drug formulations for cancer treatment” (The Regents of the University of California, priority 2015, dated 2021):
“And” between values parts separate entries of the source, which are not always exact repeats. Identical values can stand only once.

Legend:
[1] = Drug encapsulation in liposomes (absorbance after dissolution); type: physicochemical; conditions: for enhancement of liposomal drug encapsulation relative to 5FU: cationic liposomes; for Drug Incorporation: liposomes 80:10:10 DSPC:DOTAP:Chol containing the 5FU analogue
Protocol: The dissolved liposomes were centrifuged at 12000 g for 20 minutes to allow the lipids to pellet. […] Drug encapsulation is reported as the mol % of drug with respect to lipids±SD. Liposome sizes and ζ potentials were determined utilizing dynamic light scattering and electrophoretic light scattering, respectively, on a Malvern ZSizer Nano ZS. Samples were diluted 100× in distilled de-ionized water immediately prior analysis, and each measurement is reported as an average of 3 independent sets of at least 13 runs each ±SD. Drug encapsulation was evaluated for each drug, and the encapsulation methods reported here provided the highest yield for each respective drug. […] To remove free drug, liposomes were finally passed through a Sephadex G-25 PD-10 column.

[2] = Liposome size and zeta potential (dynamic/electrophoretic light scattering); type: physicochemical; conditions: liposomes 80:10:10 DSPC:DOTAP:Chol containing the 5FU analogue
Protocol: To measure drug encapsulation, 50 μL of drug-loaded liposomes were dissolved in 950 μL methanol through vortexing and sonication. The dissolved liposomes were centrifuged at 12000 g for 20 minutes to allow the lipids to pellet. The supernatant was collected, diluted serially, and their absorbances were measured at 480 nm, 266 nm, 264 nm, 268 nm, 268 nm, and 394 nm to quantify DOX, 5FU, 5FUG, 5FUW, 5FUR, and 5FURW concentrations, respectively. Drug encapsulation is reported as the mol % of drug with respect to lipids±SD. Liposome sizes and ζ potentials were determined utilizing dynamic light scattering and electrophoretic light scattering, respectively, on a Malvern ZSizer Nano ZS. Samples were diluted 100× in distilled de-ionized water immediately prior analysis, and each measurement is reported as an average of 3 independent sets of at least 13 runs each ±SD.

[3] = system: MCF 10A human breast epithelial cells; assay: MTT toxicity against healthy epithelial cells; type: cell-based; conditions: synergistic ratio R=819 vs single drug
Protocol: (§1) For cell viability studies, BT-474 cells were seeded at a density of 10,000 cells per well in 100 μL cell culture medium, grown overnight and incubated with drug solutions for 72 hours. Cell viability was assessed post drug-incubation via 3-(4,5-Dimethylthiazol-2-yl)-2,5-diphenyltetrazolium bromide (MTT; Invitrogen Life Technologies) assays. Individual drug concentrations which inhibit 50% cell growth (D50) were first determined by fitting dose-effect data to the median-effect model (Chou and Talalay, Advances in Enzyme Regulation 1984, 22, 27-55). For combinatorial studies, 5FU and DOX were simultaneously incubated with BT-474 cells at ratios of differing multiples of their D50 concentrations, and cell viability was subsequently assessed. CI values were further calculated, as previously described (Chou, Pharmacological Reviews 2006, 58(3): p. 621-621), with the designations of CI<1, CI=1, and C>1 respectively representing synergy, additivity, and antagonism. The same methodology was applied to assess interactions between all other chemotherapy combinations presented.
These cell types were chosen because any systemically-administered drug is susceptible to interactions and uptake by endothelial cells, as well as epithelial cells in surrounding healthy tissue.

BT-474 cells = assay: Liposomal cancer cell growth inhibition, calcein-AM viability assay; type: cell-based, human
Protocol: (§2) In vitro anticancer efficacy of drug-loaded liposomes was determined via calcein-AM cell viability assay. BT-474 cells or 4T1 cells were seeded in a 96-well cell culture plate at a density of 11,000 cells per well or 1,000 cells per well in a total volume of 100 μL media and allowed to adhere overnight. Media was then replaced with fresh media containing liposomes and incubated for 72 hours or 48 hours for BT-474 or 4T1 cells, respectively. The discrepancies of cell seeding densities and drug incubation times between BT-474 cells and 4T1 cells is due to the much lower doubling time of 4T1 cells compared to BT-474. Parameters were modified such that untreated cells reached 70% confluency after treatment. After incubation with liposomes, media was aspirated and replaced with 1 μM calcein-AM in PBS for 30 minutes at room temperature. Fluorescence intensity of intracellularly hydrolyzed calcein-AM was measured using excitation and emission wavelengths of 490 nm and 520 nm. Fractional cell inhibition was calculated by subtracting fluorescence of live cells in experimental wells from those of untreated cells and normalizing against untreated cells. D50 concentrations were determined by fitting experimental data to the median-effect model (Chou and Talalay, Advances in Enzyme Regulation 1984, 22, 27-55), and their error is reported as the standard error of the model fit.

[4] = system: ROS generation in BT-474 cells; assay: Reactive oxygen species generation, carboxy-H2DCFDA confocal microscopy; type: cell-based, human; conditions: 72 hours incubation
Protocol: To visualize and assess the production of reactive oxygen species (ROS), cells were seeded in an 8-well chambered borosilicate coverglass (Nunc Lab-Tek) at a density of 85,000 cells per well in 300 μL medium and grown overnight prior to incubation with drug solutions in fresh medium. After incubation of BT-474 cells with either 5FU and DOX at a molar ratio of 819:1, 5FU alone, or DOX alone for 72 hours, cells were washed three times in PBS and exposed to 10 μM carboxy-H2DCFDA (Invitrogen Life Technologies) in phosphate buffered saline (PBS; Theimo Scientific) for 30 minutes at 37° C. and 5% CO2. Upon acetate cleavage and oxidation, carboxy-H2DCFDA formed carboxydichlorofluorescein and acted as an ROS indicator. Cells were washed thrice more in PBS, finally suspended in cell culture medium, and immediately imaged live using an Olympus Fluoview 1000 spectral confocal microscope. Carboxydichlorofluorescein and DOX were both excited utilizing a 488 nm 10 mW Argon gas laser and visualized with 492-560 nm and 574-674 nm optical filters, respectively. Images were captured as 10 μm z-stacks, and each z-stack was averaged into a single image using ImageJ 1.47 h software (NIH). Fluorescence intensity is reported as the raw integrated density divided by number of cells, determined by DOX fluorescence which coincided with cell nuclei.

[5] = literature (Haran et al.); cited from earlier work
[6] = system: BT-474 human breast cancer cells; assay: Combination Index (CI) study of free drugs, MTT cell viability; type: cell-based
Protocol: as §1

[7] = system: 4T1 breast cancer cell line; assay: 5FURW cell viability studies (Example 4); type: cell-based, mouse; conditions: for IC50: Mus musculus
Protocol: (§3) Two breast cancer cell lines (of mouse and human, 4T1 and MDA-MB-231) were tested with the synthesized 5FURW, compared with 5FU and also with encapsulated drug in liposomes functionalized with amino and carboxyl groups (Table 4, FIG. 13).

[8] = system: MDA-MB-231 breast cancer cell line; assay: 5FURW cell viability studies (Example 4); type: cell-based, human; conditions: for IC50: Homo sapiens
Protocol: as §3

[9] = Encapsulation efficiency and loading capacity of drug-loaded liposomes (Example 4); type: physicochemical; conditions: 5FURW in PEGylated liposomes, 2 h encapsulation
Protocol: Liposomes were prepared with a mixture of DSPC:DSPE-PEG(2000)Amine or DSPE-PEG(2000)Carboxyl:Cholesterol:DOTAP with the ratio 75:5:10:10 via the thin lipid film formation. After the formation of the lipids and passing them through an extruder to obtain monodisperse 100 nm liposomes, the external solvent was changed using a size exclusion column and the drug encapsulated during two hours. Briefly, the thin lipid films were hydrated with 250 mM (NH4)SO4 to form liposomes containing either amine-terminated PEG or carboxy-terminated PEG. 1 mL of liposomes and 200 μL of 73 mM 5FURW were used for the encapsulation of 5FURW into the liposomes. […]
The encapsulation efficiency and loading capacity were calculated as follows: […]
The liposomes were characterized using (i) the Steward assay to determine lipid concentration, (ii) absorbance at 270 nm to evaluate 5FURW concentration, and (iii) dynamic light scattering measurements to evaluate size and surface potential. […]
The DAFODIL fabrication procedure was performed as follows. […] Characterization consisted of absorbance measurements at 270 nm and 480 nm to determine the concentration of 5FURW and DOX, respectively, dynamic light scattering measurements to measure liposome size and surface potential, and Stewart assay to quantify the concentration of lipids in the sample.

[10] = system: 4T1 murine breast cancer cells; assay: Liposomal cancer cell growth inhibition, calcein-AM viability assay; type: cell-based, mouse; conditions: 4T1, W concentrations expected during 5FURW cytotoxicity assays, free or liposome-encapsulated
Protocol: as §2

For `O=c1[nH]c(=O)n([C@@H]2O[C@H](CO)[C@@H](O)[C@H]2O)cc1F` [5FUR, 5-fluorouridine, reference compound], the “enhancement of liposomal drug encapsulation relative to 5FU” value [1] was ~5 fold, the “Drug Incorporation” value [1] was 3.7 mol % and 3.7 ± 0.2 mol % and the Size [2] was 177.4 ± 2.8 nm. The “Zeta Potential” value [2] was 37.9 ± 1.0 mV.

For `NCC(=O)OCn1cc(F)c(=O)[nH]c1=O` [5FUG, 1-[(aminomethyl)-ester]methylene-5-fluorouracil], the “Drug Incorporation” value [1] was 1.4 mol % and 1.4 ± 0.5 mol %, the Size [2] was 161.8 ± 10.8 nm and the “Zeta Potential” value [2] was 41.2 ± 1.8 mV.

For `N[C@@H](Cc1c[nH]c2ccccc12)C(=O)OCn1cc(F)c(=O)[nH]c1=O` [5FUW, (5-fluoro-2,4-dioxo-3,4-dihydropyrimidin-1(2H)-yl)methyl tryptophanate], the “Drug Incorporation” value [1] was 3.2 mol % and 3.2 ± 0.4 mol %, the Size [2] was 167.4 ± 1.8 nm and the “Zeta Potential” value [2] was 19.6 ± 0.6 mV.

With `COc1cccc2c1C(=O)c1c(O)c3c(c(O)c1C2=O)C[C@@](O)(C(=O)CO)C[C@@H]3O[C@H]1C[C@H](N)[C@H](O)[C@H](C)O1` [DOX, doxorubicin] the “reduction of D50 ratio (BT-474 relative to MCF 10A) by combining at R=819, relative to individual drug” value [3] was 5 fold, the IC50 (BT-474 cells; BT-474, 72 hrs, fit to ME model, read-out: D50 (DOX-equivalent concentration inhibiting 50% cell growth)) was 0.3 µM and the ROS generation [4] was “Little ROS generation”. For the same compound, the “liposomal encapsulation of DOX” value [5] was 14-24 mol %.

In the case of `NC(Cc1c[nH]c2ccccc12)C(=O)OC[C@H]1O[C@@H](n2cc(F)c(=O)[nH]c2=O)C(OC(=O)C(N)Cc2c[nH]c3ccccc23)C1OC(=O)C(N)Cc1c[nH]c2ccccc12` (some centres unmarked) [5FURW, 5-fluorouridine-2′, 3′, 5′-tritryptophanate], the “anticancer activity compared with 5FUR” value ([6]; free solution and liposomes, FIGS. 5A and 5B) is reported as “same anticancer activity as unmodified 5FUR”, the “enhancement of liposomal drug encapsulation relative to 5FU” value [1] is reported as 38 fold and the “Drug Incorporation” value [1] is reported as 26.6 ± 2.4 mol %. For the same compound, the Size [2] was 163.8 ± 17.2 nm, the “Zeta Potential” value [2] was 32.2 ± 6.5 mV and the “activity relative to 5FU” value [7] was 2.5 fold. For the same compound, the IC50 [7] was 41.2 µM, the “activity relative to 5FU” value [8] was 127 fold and the IC50 [8] was 0.396 µM. The encapsulation efficiency [9] was 20% and the loading capacity [9] was 20%.

In the case of `N[C@@H](Cc1c[nH]c2ccccc12)C(=O)O` [tryptophan], the toxicity (BT-474 cells; BT-474, W concentrations expected during 5FURW cytotoxicity assays, free or liposome-encapsulated) is reported as “non-toxic” and the toxicity [10] is reported as “non-toxic”.

In the case of `O=c1[nH]cc(F)c(=O)[nH]1` [5FU, 5-fluorouracil, reference compound], the “BT-474 cancer cell growth inhibited” value ([6]; same 5FU concentrations, combination at R=819, FIG. 3B) is reported as 40%, the “reduction of D50 ratio (BT-474 relative to MCF 10A) by combining at R=819, relative to individual drug” value [3] is reported as 36 fold and the “Drug Incorporation” value [1] is reported as 0.7 mol % and 0.7 ± 0.2 mol %. For the same compound, the Size [2] was 173.5 ± 43 nm, the “Zeta Potential” value [2] was 41.7 ± 9.8 mV and the ROS generation [4] was “negligible ROS generation”. The IC50 [7] was 104 µM and the IC50 [8] was 50.4 µM.
